In ChEMBL document CHEMBL1156714, “Microwave induced synthesis of novel 8,9-dihydro-7H-pyrimido[4,5-b][1,4]diazepines as potential antitumor agents” (2008):
The source made the active and inactive calls. The calls are words filed in the database; no cut-off is given here.

Experiments:
[1] = test system: ACHN; assay: Growth inhibition of human ACHN cells after 48 hrs by SRB assay; assay type: functional
[2] = Growth inhibition of human OVACR4 cells after 48 hrs by SRB assay; assay type: functional
[3] = test system: A498; assay: Growth inhibition of human A498 cells after 48 hrs by SRB assay; assay type: functional; conditions: A498, 48 h
[4] = test system: LOX IMVI; assay: Growth inhibition of human LOX IMVI cells after 48 hrs by SRB assay; assay type: functional
[5] = test system: NCI-H522; assay: Growth inhibition of human NCI-H522 cells after 48 hrs by SRB assay; assay type: functional; conditions: NCI-H522, 48 h
[6] = Growth inhibition of human HL60(TB) cells after 48 hrs by SRB assay; assay type: functional, HL-60(TB); conditions: Homo sapiens, HL-60, 48 h
[7] = test system: SF-268; assay: Growth inhibition of human SF268 cells after 48 hrs by SRB assay; assay type: functional; conditions: SF-268, 48 h
[8] = test system: IGROV-1; assay: Growth inhibition of human IGROV1 cells after 48 hrs by SRB assay; assay type: functional; conditions: IGROV-1, 48 h
[9] = test system: CAKI-1; assay: Growth inhibition of human CAKI1 cells after 48 hrs by SRB assay; assay type: functional; conditions: CAKI-1, 48 h
[10] = test system: A549; assay: Growth inhibition of human A549 cells after 48 hrs by SRB assay; assay type: functional; conditions: A549, 48 h
[11] = test system: NCI/ADR-RES; assay: Growth inhibition of human NCI/ADR-RES cells after 48 hrs by SRB assay; assay type: functional
[12] = test system: UACC-62; assay: Growth inhibition of human UACC62 cells after 48 hrs by SRB assay; assay type: functional; conditions: UACC-62, 48 h
[13] = test system: COLO 205; assay: Growth inhibition of human COLO205 cells after 48 hrs by SRB assay; assay type: functional; conditions: COLO 205, 48 h
[14] = test system: EKVX; assay: Growth inhibition of human EKVX cells after 48 hrs by SRB assay; assay type: functional
[15] = test system: SW-620; assay: Growth inhibition of human SW620 cells after 48 hrs by SRB assay; assay type: functional; conditions: SW-620, 48 h
[16] = test system: Malme-3M; assay: Growth inhibition of human MALME-3M cells after 48 hrs by SRB assay; assay type: functional
[17] = test system: SK-MEL-28; assay: Growth inhibition of human SK-MEL-28 cells after 48 hrs by SRB assay; assay type: functional; conditions: SK-MEL-28, 48 h
[18] = test system: NCI-H23; assay: Growth inhibition of human NCI-H23 cells after 48 hrs by SRB assay; assay type: functional; conditions: NCI-H23, 48 h
[19] = test system: NCI-60; assay: Growth inhibition of human NCI-60 cells at 1.0 uM; assay type: functional, cell-based
[20] = test system: SNB-75; assay: Growth inhibition of human SNB75 cells after 48 hrs by SRB assay; assay type: functional; conditions: SNB-75, 48 h
[21] = test system: MCF7; assay: Growth inhibition of human MCF7 cells after 48 hrs by SRB assay; assay type: functional; conditions: MCF7, 48 h
[22] = test system: DU-145; assay: Growth inhibition of human DU145 cells after 48 hrs by SRB assay; assay type: functional; conditions: DU-145, 48 h
[23] = test system: RXF 393; assay: Growth inhibition of human […] cells after 48 hrs by SRB assay; assay type: functional; conditions: RXF 393, 48 h
[24] = Growth inhibition of human OVACR3 cells after 48 hrs by SRB assay; assay type: functional
[25] = test system: SR; assay: Growth inhibition of human SR cells after 48 hrs by SRB assay; assay type: functional
[26] = test system: HCT-15; assay: Growth inhibition of human HCT15 cells after 48 hrs by SRB assay; assay type: functional; conditions: HCT-15, 48 h
[27] = test system: UO-31; assay: Growth inhibition of human UO31 cells after 48 hrs by SRB assay; assay type: functional; conditions: UO-31, 48 h
[28] = test system: T47D; assay: Growth inhibition of human T47D cells after 48 hrs by SRB assay; assay type: functional
[29] = test system: TK-10; assay: Growth inhibition of human TK10 cells after 48 hrs by SRB assay; assay type: functional; conditions: TK-10, 48 h
[30] = test system: HCC 2998; assay: Growth inhibition of human HCC2998 cells after 48 hrs by SRB assay; assay type: functional; conditions: HCC 2998, 48 h
[31] = test system: Hs-578T; assay: Growth inhibition of human HS578T cells after 48 hrs by SRB assay; assay type: functional
[32] = test system: HT-29; assay: Growth inhibition of human HT29 cells after 48 hrs by SRB assay; assay type: functional; conditions: HT-29, 48 h
[33] = Growth inhibition of human […] cells after 48 hrs by SRB assay; assay type: functional
[34] = test system: SF-539; assay: Growth inhibition of human SF539 cells after 48 hrs by SRB assay; assay type: functional; conditions: SF-539, 48 h
[35] = test system: MDA-MB-468; assay: Growth inhibition of human MDA-MB-468 cells after 48 hrs by SRB assay; assay type: functional; conditions: MDA-MB-468, 48 h
[36] = test system: NCI-H226; assay: Growth inhibition of human NCI-H226 cells after 48 hrs by SRB assay; assay type: functional; conditions: NCI-H226, 48 h
[37] = test system: SF-295; assay: Growth inhibition of human SF295 cells after 48 hrs by SRB assay; assay type: functional; conditions: SF-295, 48 h
[38] = test system: K562; assay: Growth inhibition of human K562 cells after 48 hrs by SRB assay; assay type: functional; conditions: K562, 48 h
[39] = test system: NCI-H322M; assay: Growth inhibition of human NCI-H322M cells after 48 hrs by SRB assay; assay type: functional
[40] = test system: NCI-H460; assay: Growth inhibition of human NCI-H460 cells after 48 hrs by SRB assay; assay type: functional; conditions: NCI-H460, 48 h
[41] = test system: SK-OV-3; assay: Growth inhibition of human SK-OV-3 cells after 48 hrs by SRB assay; assay type: functional; conditions: SK-OV-3, 48 h
[42] = test system: SN12C; assay: Growth inhibition of human SN12C cells after 48 hrs by SRB assay; assay type: functional
[43] = read-out: LC50 (the source's name)

Cc1ccc(C2=Nc3c(N)ncnc3NC(c3ccc4c(c3)OCO4)C2)cc1 (racemic)
GI50 [1]: 7.74 µM
LC50 (lethal concentration 50%) [1]: > 100 µM
GI50 [2]: 17.7 µM
LC50 [2]: > 100 µM
GI50 [3]: 6.33 µM
LC50 [3]: > 100 µM
GI50 [4]: 6.38 µM
CC50 [4, 43]: 81.5 µM
GI50 [5]: 3.67 µM
CC50 [5, 43]: > 100 µM
GI50 [6]: 720 nM
CC50 [6, 43]: > 100 µM
GI50 [7]: 4.06 µM
LC50 (50% lethal concentration) [7]: 52.2 µM
GI50 [8]: 3.34 µM
CC50 [8, 43]: > 100 µM
GI50 [9]: 1440 nM
CC50 [9, 43]: > 100 µM
GI50 [10]: 7.09 µM
LC50 [10]: > 100 µM
GI50 [11]: 3.52 µM
CC50 [11, 43]: > 100 µM
GI50 [12]: 4.09 µM
CC50 [12, 43]: > 100 µM
GI50 [13]: 3.47 µM
CC50 [13, 43]: > 100 µM
GI50 [14]: 16.2 µM
CC50 [14, 43]: > 100 µM
GI50 [15]: 3.56 µM
CC50 [15, 43]: > 100 µM
GI50 [16]: 3.01 µM
CC50 [16, 43]: > 100 µM
GI50 [17]: 10.2 µM
CC50 [17, 43]: > 100 µM
GI50 [18]: 10.2 µM
CC50 [18, 43]: > 100 µM
Activity [19]: Active
GI50 [20]: 4.55 µM
CC50 [20, 43]: > 100 µM
GI50 [21]: 3.42 µM
LC50 [21]: > 100 µM
GI50 [22]: 4.52 µM
CC50 [22, 43]: 46.7 µM
GI50 [23]: 3.5 µM
CC50 [23, 43]: > 100 µM
GI50 [24]: 2750 nM
LC50 [24]: 23.3 µM
GI50 [25]: 250 nM
LC50 (concentration killing 50% of cells) [25]: > 100 µM
GI50 [26]: 3.14 µM
CC50 [26, 43]: 55.2 µM
GI50 [27]: 10.8 µM
CC50 [27, 43]: 65.2 µM
GI50 [28]: 5.72 µM
CC50 [28, 43]: > 100 µM
GI50 [29]: 4.47 µM
CC50 [29, 43]: 69.7 µM
GI50 [30]: 6.29 µM
LC50 (concentration killing 50% of cells) [30]: > 100 µM
GI50 [31]: 7.28 µM
CC50 [31, 43]: > 100 µM
GI50 [32]: 3.81 µM
CC50 [32, 43]: > 100 µM
GI50 [33]: 13.5 µM
CC50 [33, 43]: > 100 µM
GI50 [34]: 4.98 µM
CC50 [34, 43]: 69.9 µM
GI50 [35]: 3.68 µM
CC50 [35, 43]: > 100 µM
GI50 [36]: 12.6 µM
CC50 [36, 43]: > 100 µM
GI50 [37]: 4.98 µM
LC50 [37]: > 100 µM
GI50 [38]: 4.19 µM
LC50 [38]: > 100 µM
GI50 [39]: 16.5 µM
CC50 [39, 43]: > 100 µM
GI50 [40]: 3.59 µM
CC50 [40, 43]: > 100 µM
GI50 [41]: 15.8 µM
CC50 [41, 43]: > 100 µM
GI50 [42]: 8.61 µM
CC50 [42, 43]: > 100 µM
